In ChEMBL document CHEMBL4507281, “Data for DCP probe BI-4394” (2021):

Legend:
[1] = biological target: Hepatocyte growth factor receptor (Homo sapiens) (UniProt P08581); conditions: Compound concentration 100.0 nM
[2] = biological target: Phosphorylase b kinase gamma catalytic chain, skeletal muscle/heart isoform (Homo sapiens) (UniProt Q16816); conditions: Compound concentration 100.0 nM
[3] = biological target: Dual specificity protein kinase TTK (Homo sapiens) (UniProt P33981); conditions: Compound concentration 100.0 nM
[4] = biological target: Serine/threonine-protein kinase PAK 4 (Homo sapiens) (UniProt O96013); conditions: Compound concentration 100.0 nM
[5] = biological target: 5-hydroxytryptamine receptor 2B (Homo sapiens) (UniProt P41595); conditions: Compound concentration 10.0 uM
[6] = biological target: Ribosomal protein S6 kinase alpha-3 (Homo sapiens) (UniProt P51812); conditions: Compound concentration 100.0 nM
[7] = biological target: Serine/threonine-protein kinase 26 (Homo sapiens) (UniProt Q9P289); conditions: Compound concentration 100.0 nM
[8] = biological target: Dual specificity protein kinase CLK1 (Homo sapiens) (UniProt P49759); conditions: Compound concentration 100.0 nM
Sequence of Dual specificity protein kinase CLK1 (Homo sapiens) (P49759 whole entry, looked up): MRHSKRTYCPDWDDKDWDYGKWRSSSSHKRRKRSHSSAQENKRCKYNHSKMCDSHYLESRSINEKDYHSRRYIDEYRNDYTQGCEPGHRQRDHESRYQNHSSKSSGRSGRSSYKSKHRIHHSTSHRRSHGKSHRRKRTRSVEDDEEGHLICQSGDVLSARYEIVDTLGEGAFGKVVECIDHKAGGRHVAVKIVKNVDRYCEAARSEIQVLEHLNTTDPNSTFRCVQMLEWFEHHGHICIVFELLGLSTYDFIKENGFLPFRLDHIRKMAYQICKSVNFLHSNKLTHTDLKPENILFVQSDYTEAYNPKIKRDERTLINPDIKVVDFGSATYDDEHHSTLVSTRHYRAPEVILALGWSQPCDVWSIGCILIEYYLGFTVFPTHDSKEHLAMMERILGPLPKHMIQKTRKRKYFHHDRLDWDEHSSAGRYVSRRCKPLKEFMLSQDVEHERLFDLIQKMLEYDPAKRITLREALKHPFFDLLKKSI

[9] = biological target: Serine/threonine-protein kinase Nek4 (Homo sapiens) (UniProt P51957); conditions: Compound concentration 100.0 nM
Sequence of Serine/threonine-protein kinase Nek4 (Homo sapiens) (P51957 whole entry, looked up): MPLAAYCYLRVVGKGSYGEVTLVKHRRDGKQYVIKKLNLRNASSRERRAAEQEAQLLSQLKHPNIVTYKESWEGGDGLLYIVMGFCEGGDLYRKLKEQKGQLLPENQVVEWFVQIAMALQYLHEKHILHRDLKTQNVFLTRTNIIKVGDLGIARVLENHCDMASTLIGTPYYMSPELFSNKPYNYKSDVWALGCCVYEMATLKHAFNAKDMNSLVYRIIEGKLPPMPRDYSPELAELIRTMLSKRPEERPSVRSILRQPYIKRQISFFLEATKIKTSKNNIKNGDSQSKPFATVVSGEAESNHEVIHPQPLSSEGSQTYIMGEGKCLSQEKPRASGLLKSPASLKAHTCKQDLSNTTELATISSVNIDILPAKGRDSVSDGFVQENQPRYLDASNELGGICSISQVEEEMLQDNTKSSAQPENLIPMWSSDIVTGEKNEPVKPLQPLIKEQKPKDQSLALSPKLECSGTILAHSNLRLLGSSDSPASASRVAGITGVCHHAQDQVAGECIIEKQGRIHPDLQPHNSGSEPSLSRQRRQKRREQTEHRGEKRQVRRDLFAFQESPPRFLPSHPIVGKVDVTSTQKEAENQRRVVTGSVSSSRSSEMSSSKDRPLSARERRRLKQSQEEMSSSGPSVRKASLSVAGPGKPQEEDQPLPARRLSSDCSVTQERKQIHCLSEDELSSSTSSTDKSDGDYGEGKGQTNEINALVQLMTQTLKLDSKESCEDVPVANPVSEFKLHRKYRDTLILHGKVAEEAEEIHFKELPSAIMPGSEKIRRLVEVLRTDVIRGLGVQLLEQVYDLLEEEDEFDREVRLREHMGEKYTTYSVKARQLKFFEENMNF

[10] = system: Epidermal growth factor receptor (Homo sapiens), P00533 [L861Q]; conditions: Compound concentration 100.0 nM
[11] = biological target: SRSF protein kinase 1 (Homo sapiens) (UniProt Q96SB4); conditions: Compound concentration 100.0 nM
[12] = biological target: Tyrosine-protein kinase JAK1 (Homo sapiens) (UniProt P23458); conditions: Compound concentration 100.0 nM
[13] = biological target: BDNF/NT-3 growth factors receptor (Homo sapiens) (UniProt Q16620); conditions: Compound concentration 100.0 nM
[14] = biological target: Cyclin-dependent kinase-like 3 (Homo sapiens) (UniProt Q8IVW4); conditions: Compound concentration 100.0 nM
[15] = biological target: Fibroblast growth factor receptor 3 (Homo sapiens) (UniProt P22607); conditions: Compound concentration 100.0 nM
[16] = biological target: Serine/threonine-protein kinase ULK3 (Homo sapiens) (UniProt Q6PHR2); conditions: Compound concentration 100.0 nM
Sequence of Serine/threonine-protein kinase ULK3 (Homo sapiens) (Q6PHR2 whole entry): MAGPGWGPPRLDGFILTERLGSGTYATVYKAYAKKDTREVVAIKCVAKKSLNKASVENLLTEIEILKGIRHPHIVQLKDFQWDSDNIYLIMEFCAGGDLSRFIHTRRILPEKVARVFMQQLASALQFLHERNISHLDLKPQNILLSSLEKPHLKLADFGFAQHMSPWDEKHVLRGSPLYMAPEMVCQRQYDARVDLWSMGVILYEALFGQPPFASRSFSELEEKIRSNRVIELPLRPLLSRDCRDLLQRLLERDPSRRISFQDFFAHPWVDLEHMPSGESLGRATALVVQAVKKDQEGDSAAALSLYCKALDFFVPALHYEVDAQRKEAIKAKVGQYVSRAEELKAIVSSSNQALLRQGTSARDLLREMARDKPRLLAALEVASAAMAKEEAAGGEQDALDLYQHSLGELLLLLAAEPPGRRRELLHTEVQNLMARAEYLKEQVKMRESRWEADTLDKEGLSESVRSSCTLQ

[17] = system: Epidermal growth factor receptor (Homo sapiens), P00533 [G719C]; conditions: Compound concentration 100.0 nM
[18] = biological target: Glycogen synthase kinase-3 alpha (Homo sapiens) (UniProt P49840); conditions: Compound concentration 100.0 nM
[19] = biological target: Myosin-IIIa (Homo sapiens) (UniProt Q8NEV4); conditions: Compound concentration 100.0 nM
[20] = biological target: Ribosomal protein S6 kinase alpha-6 (Homo sapiens) (UniProt Q9UK32); conditions: Compound concentration 100.0 nM
[21] = biological target: Mitogen-activated protein kinase kinase kinase 3 (Homo sapiens) (UniProt Q99759); conditions: Compound concentration 100.0 nM
[22] = biological target: Mast/stem cell growth factor receptor Kit (Homo sapiens) (UniProt P10721); conditions: Compound concentration 100.0 nM
[23] = biological target: Histamine H3 receptor (Homo sapiens) (UniProt Q9Y5N1); conditions: Compound concentration 10.0 uM
[24] = biological target: Serine/threonine-protein kinase PRP4 homolog (Homo sapiens) (UniProt Q13523); conditions: Compound concentration 100.0 nM
Sequence of Serine/threonine-protein kinase PRP4 homolog (Homo sapiens) (Q13523 whole entry): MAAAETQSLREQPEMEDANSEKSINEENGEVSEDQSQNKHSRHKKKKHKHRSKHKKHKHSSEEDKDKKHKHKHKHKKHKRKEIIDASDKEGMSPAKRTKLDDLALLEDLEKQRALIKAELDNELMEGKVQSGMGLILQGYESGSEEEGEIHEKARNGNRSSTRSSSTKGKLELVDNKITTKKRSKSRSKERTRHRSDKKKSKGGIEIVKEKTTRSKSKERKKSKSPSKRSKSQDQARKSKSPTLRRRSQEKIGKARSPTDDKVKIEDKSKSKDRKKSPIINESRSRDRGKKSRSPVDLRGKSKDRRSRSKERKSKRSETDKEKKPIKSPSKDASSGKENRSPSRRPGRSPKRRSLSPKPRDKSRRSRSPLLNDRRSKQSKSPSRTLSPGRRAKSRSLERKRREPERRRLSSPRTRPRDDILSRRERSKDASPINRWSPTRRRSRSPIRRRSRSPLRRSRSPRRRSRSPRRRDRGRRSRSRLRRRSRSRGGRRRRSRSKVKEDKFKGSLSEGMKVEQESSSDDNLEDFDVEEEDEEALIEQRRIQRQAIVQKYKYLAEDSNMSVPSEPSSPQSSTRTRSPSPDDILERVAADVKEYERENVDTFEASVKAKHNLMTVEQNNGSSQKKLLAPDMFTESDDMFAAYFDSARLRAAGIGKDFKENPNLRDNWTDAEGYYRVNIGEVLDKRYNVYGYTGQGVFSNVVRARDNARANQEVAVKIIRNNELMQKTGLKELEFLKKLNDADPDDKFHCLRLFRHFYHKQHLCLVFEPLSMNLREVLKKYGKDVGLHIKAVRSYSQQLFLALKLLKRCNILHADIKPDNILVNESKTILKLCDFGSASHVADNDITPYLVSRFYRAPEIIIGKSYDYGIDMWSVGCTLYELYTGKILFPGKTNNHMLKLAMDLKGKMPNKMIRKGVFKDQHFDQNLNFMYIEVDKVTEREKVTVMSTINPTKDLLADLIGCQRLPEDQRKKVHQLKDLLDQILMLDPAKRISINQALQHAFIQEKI

[25] = biological target: Ribosomal protein S6 kinase alpha-2 (Homo sapiens) (UniProt Q15349); conditions: Compound concentration 100.0 nM
Sequence of Ribosomal protein S6 kinase alpha-2 (Homo sapiens) (Q15349 whole entry): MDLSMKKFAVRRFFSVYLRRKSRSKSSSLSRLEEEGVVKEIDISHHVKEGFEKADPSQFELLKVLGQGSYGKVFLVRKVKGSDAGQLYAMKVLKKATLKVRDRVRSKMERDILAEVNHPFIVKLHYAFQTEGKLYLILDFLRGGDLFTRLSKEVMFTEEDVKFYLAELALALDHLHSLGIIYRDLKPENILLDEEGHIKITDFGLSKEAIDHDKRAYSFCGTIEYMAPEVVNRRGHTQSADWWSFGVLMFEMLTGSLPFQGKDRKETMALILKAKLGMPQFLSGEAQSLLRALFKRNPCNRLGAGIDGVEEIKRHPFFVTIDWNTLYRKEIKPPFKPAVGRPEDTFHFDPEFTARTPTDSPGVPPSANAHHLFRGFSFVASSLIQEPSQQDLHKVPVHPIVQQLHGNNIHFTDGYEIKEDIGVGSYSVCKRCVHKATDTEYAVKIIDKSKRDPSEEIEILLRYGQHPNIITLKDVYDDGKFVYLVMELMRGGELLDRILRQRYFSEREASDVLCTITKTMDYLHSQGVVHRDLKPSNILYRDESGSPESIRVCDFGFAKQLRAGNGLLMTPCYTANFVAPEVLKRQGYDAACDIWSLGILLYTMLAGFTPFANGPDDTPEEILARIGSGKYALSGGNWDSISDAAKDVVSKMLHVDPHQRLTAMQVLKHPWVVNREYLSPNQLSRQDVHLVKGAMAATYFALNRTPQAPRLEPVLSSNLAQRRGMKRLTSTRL

[26] = biological target: Serine/threonine-protein kinase PAK 3 (Homo sapiens) (UniProt O75914); conditions: Compound concentration 100.0 nM
Sequence of Serine/threonine-protein kinase PAK 3 (Homo sapiens) (O75914 whole entry, looked up): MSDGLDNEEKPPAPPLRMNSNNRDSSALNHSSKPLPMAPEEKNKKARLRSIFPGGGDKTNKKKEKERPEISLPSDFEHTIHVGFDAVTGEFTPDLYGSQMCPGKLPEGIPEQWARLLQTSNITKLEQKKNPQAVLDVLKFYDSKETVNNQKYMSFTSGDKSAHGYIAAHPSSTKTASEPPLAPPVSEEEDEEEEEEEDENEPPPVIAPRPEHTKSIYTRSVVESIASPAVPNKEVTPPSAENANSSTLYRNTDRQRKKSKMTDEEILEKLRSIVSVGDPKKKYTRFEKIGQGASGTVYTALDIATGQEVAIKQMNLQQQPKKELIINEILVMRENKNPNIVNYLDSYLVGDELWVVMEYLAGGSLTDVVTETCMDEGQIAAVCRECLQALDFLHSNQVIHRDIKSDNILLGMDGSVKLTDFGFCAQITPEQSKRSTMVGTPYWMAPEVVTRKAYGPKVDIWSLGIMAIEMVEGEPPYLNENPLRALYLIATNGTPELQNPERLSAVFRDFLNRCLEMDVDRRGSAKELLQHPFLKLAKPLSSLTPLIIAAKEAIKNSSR

[27] = biological target: D(1B) dopamine receptor (Homo sapiens, UniProt P21918); conditions: Compound concentration 10.0 uM
[28] = biological target: Tyrosine-protein kinase ITK/TSK (Homo sapiens) (UniProt Q08881); conditions: Compound concentration 100.0 nM
[29] = biological target: Muscle, skeletal receptor tyrosine-protein kinase (Homo sapiens) (UniProt O15146); conditions: Compound concentration 100.0 nM
[30] = biological target: Serine/threonine-protein kinase TAO2 (Homo sapiens) (UniProt Q9UL54); conditions: Compound concentration 100.0 nM
[31] = biological target: Muscarinic acetylcholine receptor M3 (Homo sapiens) (UniProt P20309); conditions: Compound concentration 10.0 uM
[32] = biological target: ALK tyrosine kinase receptor (Homo sapiens) (UniProt Q9UM73); conditions: Compound concentration 100.0 nM
[33] = biological target: Vascular endothelial growth factor receptor 1 (Homo sapiens) (UniProt P17948); conditions: Compound concentration 100.0 nM
[34] = biological target: Phosphatidylinositol 4-phosphate 5-kinase type-1 gamma (Homo sapiens) (UniProt O60331); conditions: Compound concentration 100.0 nM
[35] = biological target: Casein kinase I isoform delta (Homo sapiens) (UniProt P48730); conditions: Compound concentration 100.0 nM
[36] = biological target: Receptor-type tyrosine-protein kinase FLT3 (Homo sapiens) (UniProt P36888); conditions: Compound concentration 100.0 nM
[37] = biological target: Mitogen-activated protein kinase kinase kinase 14 (Homo sapiens) (UniProt Q99558); conditions: Compound concentration 100.0 nM
[38] = biological target: Serine/threonine-protein kinase 3 (Homo sapiens) (UniProt Q13188); conditions: Compound concentration 100.0 nM
[39] = biological target: Ribosomal protein S6 kinase alpha-2 (Homo sapiens) (UniProt Q15349); conditions: Compound concentration 100.0 nM; remark: listed apart in the source
[40] = biological target: RAC-gamma serine/threonine-protein kinase (Homo sapiens) (UniProt Q9Y243); conditions: Compound concentration 100.0 nM
Sequence of RAC-gamma serine/threonine-protein kinase (Homo sapiens) (Q9Y243 whole entry): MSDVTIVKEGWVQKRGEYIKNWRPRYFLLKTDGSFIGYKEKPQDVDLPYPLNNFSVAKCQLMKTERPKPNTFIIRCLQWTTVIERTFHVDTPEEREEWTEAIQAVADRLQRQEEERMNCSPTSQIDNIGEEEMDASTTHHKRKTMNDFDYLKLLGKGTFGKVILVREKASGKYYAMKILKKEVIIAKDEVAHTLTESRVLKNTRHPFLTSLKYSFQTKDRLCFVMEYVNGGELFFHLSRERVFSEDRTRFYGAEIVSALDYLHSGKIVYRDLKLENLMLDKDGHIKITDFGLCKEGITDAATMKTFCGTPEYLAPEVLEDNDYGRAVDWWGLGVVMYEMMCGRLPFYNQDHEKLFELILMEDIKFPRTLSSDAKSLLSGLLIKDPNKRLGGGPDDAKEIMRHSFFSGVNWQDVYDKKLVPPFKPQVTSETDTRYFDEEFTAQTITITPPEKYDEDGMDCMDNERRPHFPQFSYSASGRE

[41] = biological target: Mitogen-activated protein kinase kinase kinase 13 (Homo sapiens) (UniProt O43283); conditions: Compound concentration 100.0 nM
[42] = system: Phosphatidylinositol 4,5-bisphosphate 3-kinase catalytic subunit alpha isoform (Homo sapiens), P42336 [E542K]; conditions: Compound concentration 100.0 nM
[43] = biological target: 5-hydroxytryptamine receptor 3A (Homo sapiens) (UniProt P46098); conditions: Compound concentration 10.0 uM
[44] = biological target: Tyrosine-protein kinase receptor TYRO3 (Homo sapiens) (UniProt Q06418); conditions: Compound concentration 100.0 nM
[45] = system: Epidermal growth factor receptor (Homo sapiens), P00533 [UNDEFINED MUTATION]; conditions: Compound concentration 100.0 nM

Sequence of Phosphorylase b kinase gamma catalytic chain, skeletal muscle/heart isoform (Homo sapiens) (Q16816 whole entry, looked up, canonical isoform): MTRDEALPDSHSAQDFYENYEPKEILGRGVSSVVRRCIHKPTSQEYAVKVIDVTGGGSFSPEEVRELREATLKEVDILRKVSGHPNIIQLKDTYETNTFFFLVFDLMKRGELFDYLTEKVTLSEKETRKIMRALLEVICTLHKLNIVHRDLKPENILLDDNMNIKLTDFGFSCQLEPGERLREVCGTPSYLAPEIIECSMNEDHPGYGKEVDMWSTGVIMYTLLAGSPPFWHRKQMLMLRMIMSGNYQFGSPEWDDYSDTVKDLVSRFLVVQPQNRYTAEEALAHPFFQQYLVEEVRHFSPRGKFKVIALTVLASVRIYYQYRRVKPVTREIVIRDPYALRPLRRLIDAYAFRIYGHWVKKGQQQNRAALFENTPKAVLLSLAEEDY

Structure (SMILES): CCOC(=O)c1cc2cc(-c3cc(C(=O)NCc4ccc(C(=O)O)cc4)nn3C)ccc2[nH]1 [BI 4394]
- residual activity [1]: 96%
- residual activity [2]: 100%
- residual activity [3]: 93%
- residual activity [4]: 100%
- inhibition [5]: 8.13%
- residual activity [6]: 100%
- residual activity [7]: 81%
- residual activity [8]: 100%
- residual activity [9]: 81%
- residual activity [10]: 100%
- residual activity [11]: 75%
- residual activity [12]: 100%
- residual activity [13]: 91%
- residual activity [14]: 0%
- residual activity [15]: 97%
- residual activity [16]: 100%
- residual activity [17]: 100%
- residual activity [18]: 100%
- residual activity [19]: 100%
- residual activity [20]: 95%
- residual activity [21]: 94%
- residual activity [22]: 97%
- inhibition [23]: 8.18%
- residual activity [24]: 89%
- residual activity [25]: 100%
- residual activity [26]: 77%
- inhibition [27]: 59.6%
- residual activity [28]: 100%
- residual activity [29]: 64%
- residual activity [30]: 90%
- inhibition [31]: 4.89%
- residual activity [32]: 98%
- residual activity [33]: 97%
- residual activity [34]: 100%
- residual activity [35]: 81%
- residual activity [36]: 90%
- residual activity [37]: 58%
- residual activity [38]: 96%
- residual activity [39]: 84%
- residual activity [40]: 86%
- residual activity [41]: 74%
- residual activity [42]: 96%
- inhibition [43]: 34.8%
- residual activity [44]: 100%
- residual activity [45]: 100%

Structure (SMILES): Cn1nc(C(=O)NCc2ccc(C(=O)O)cc2)cc1-c1ccc2[nH]ccc2c1 [BI 4395]
- residual activity [1]: 100%
- residual activity [2]: 100%
- residual activity [3]: 88%
- residual activity [4]: 86%
- inhibition [5]: -2.75%
- residual activity [6]: 78%
- residual activity [7]: 95%
- residual activity [8]: 80%
- residual activity [9]: 84%
- residual activity [10]: 69%
- residual activity [11]: 33%
- residual activity [12]: 93%
- residual activity [13]: 92%
- residual activity [14]: 100%
- residual activity [15]: 93%
- residual activity [16]: 99%
- residual activity [17]: 76%
- residual activity [18]: 61%
- residual activity [19]: 95%
- residual activity [20]: 86%
- residual activity [21]: 78%
- residual activity [22]: 97%
- inhibition [23]: -4.12%
- residual activity [24]: 100%
- residual activity [25]: 100%
- residual activity [26]: 82%
- inhibition [27]: 73.9%
- residual activity [28]: 85%
- residual activity [29]: 95%
- residual activity [30]: 82%
- inhibition [31]: -0.66%
- residual activity [32]: 80%
- residual activity [33]: 89%
- residual activity [34]: 91%
- residual activity [35]: 84%
- residual activity [36]: 86%
- residual activity [37]: 85%
- residual activity [38]: 91%
- residual activity [39]: 98%
- residual activity [40]: 88%
- residual activity [41]: 78%
- residual activity [42]: 88%
- inhibition [43]: 23.5%
- residual activity [44]: 100%
- residual activity [45]: 100%
